Assay results taken from PMC11213934, “Allosteric modulators of M1 muscarinic receptors enhance acetylcholine efficacy and decrease locomotor activity and turning behaviors in zebrafish” (Scientific Reports, 2024).
“Also recorded” adds a separate entry of the source. Marks after values point to notes of the source that are not given here.

Assays:
[1] = test system: wild-type (AB) zebrafish (Danio rerio); type: in vivo; settings: compound at 10 µM relative to controls; mean ± s.e.m., N = 12
[2] = molecular target: T1, human M1 muscarinic receptors (Homo sapiens, UniProt P11229); assay: [3H]AA release ACh dose-response families fitted to an allosteric operational model; settings: Em set to 2.0
T1 sequence (P11229 1-460): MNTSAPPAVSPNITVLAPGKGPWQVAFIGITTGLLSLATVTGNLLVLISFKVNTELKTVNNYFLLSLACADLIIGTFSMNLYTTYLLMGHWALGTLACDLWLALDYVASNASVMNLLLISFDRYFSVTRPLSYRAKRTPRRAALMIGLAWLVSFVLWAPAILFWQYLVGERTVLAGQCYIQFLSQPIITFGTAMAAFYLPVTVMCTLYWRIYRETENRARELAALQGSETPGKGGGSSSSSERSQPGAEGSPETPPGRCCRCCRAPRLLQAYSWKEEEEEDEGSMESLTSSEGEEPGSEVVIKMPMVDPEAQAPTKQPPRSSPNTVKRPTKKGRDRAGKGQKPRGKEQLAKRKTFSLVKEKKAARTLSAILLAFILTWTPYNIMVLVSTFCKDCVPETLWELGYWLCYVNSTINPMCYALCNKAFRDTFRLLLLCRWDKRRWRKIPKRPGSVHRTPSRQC

[3] = test system: wild-type (AB) zebrafish (Danio rerio); assay: animal or person; type: in vivo; settings: for Distance moved / Variance turn angle: compound at 10 µM relative to controls, mean ± s.e.m., N = 12; for MEC: locomotor behaviors
Description: (§1) Larval zebrafish were produced in the University of Toledo zebrafish core facility and housed in an incubator maintained at 28 °C on a 14:10 h cycle. Fish were acclimated to the testing room conditions the evening prior to testing. All testing took place during the 14 h light cycle after the lights had been on for at least 2 h.
The movement of larval zebrafish was monitored with the Noldus behavior recording system (Noldus Information Technology, Leesburg VA) and quantified using EthoVision® XT 15 software (Noldus Information Technology, Leesburg VA). Five-dpf zebrafish larvae were exposed to a range of nonlethal concentrations of compounds in a 24-well plate with appropriate controls. The plate was immediately placed in the incubator for a 30-min exposure period. After 30 min, the plate was transferred to the Noldus system and swimming behavior was recorded in 100% light for 30 min to measure spontaneous swimming behavior. The light was switched off for 10 min (dark period) and then switched on for 10 min (light period), which was then repeated for two additional cycles. In total, the larvae were exposed to three cycles of alternating 10 min dark and light periods (100% darkness-to-100% light). Each drug challenge was conducted on three separate plates with n = 6 larvae/dose/plate.
Absolute turn angle (TA) and angular velocity provided measures of the extent of turning behavior, while the intra-individual variance of turn angle quantified how consistently (low variance) or inconsistently (high variance) fish turned. A lowered intra-individual variance of turning reflected repeatedly performing the same turning behavior, a stereotypy.
All data for exposure and the behavioral end points were analyzed by one-way ANOVA (factor: drug concentration) followed by a Dunnett’s multiple comparisons test for post hoc significance between drug concentration and control group. Statistically significant differences are noted as follows; *p < 0.05; **p < 0.01; ***p < 0.001.

[4] = test system: wild-type (AB) zebrafish (Danio rerio); assay: Maximum tolerated concentration (MTC) determination in larval zebrafish; type: in vivo; settings: for MTC (maximum tolerated concentration): after 24 h exposure, 5 dpf larvae
Description: as §1
Determination of maximum tolerated concentration (adapted from Berghmans)[52] was completed by placing 5 days post fertilization (dpf) wild-type zebrafish larvae in a 24 well plate at 6 fish per well, and one compound concentration per well. […] Death was determined by the absence of heartbeat. Additional endpoints were used to assess toxicity at non-lethal concentrations such as startle capacity (poke stimulus), abnormalities in swimming behavior (loss of dorsoventral balance), and gross morphological deformities (bent body). […] The MTC determination was used to select three doses of each compound (low, medium, high dose) to be used in behavioral assays.

[5] = molecular target: T1, human M1 muscarinic receptors; assay: [3H]-arachidonic acid release in CHO cells expressing M1 receptors, with and without ACh (single modulator concentration, four-parameter curves); type: cell-based; parameters: expressed in transfected cells; host or cells: CHO cells stably transfected with hM1, obtained from Mark Brann's laboratory (NIH); settings: for 0.1 µM ACh: response with modulator present divided by response to ACh alone / 100 µM ACh: response with modulator present divided by response to ACh alone / No ACh: agonist effect of the allosteric ligand by itself, fraction of the maximal response that could be elicited by ACh: modulator 10 µM, CHO-hM1, mean ± s.e.m.; for No ACh: agonist effect of the allosteric ligand by itself, fraction of the maximal response that could be elicited by ACh: at least 4 determinations; for Effect on M1 receptor activity and ACh response, in words: modulators at 10 µM (amiodarone 30 µM)
Description: CHO cells expressing human M1 muscarinic receptors were cultured at 37 °C in a 5% CO2 atmosphere in F12 medium supplemented with 5% fetal bovine serum, 100 units/ml penicillin, and 100 µg/ml streptomycin. These cells were obtained from Mark Brann’s laboratory when they were at NIH and have been in use by us and others for many years.
Measurement of [^3H]AA release was performed as described in Stahl and Ellis[24]. Stably transfected CHO-hM1 cells were seeded on 24-well plates (Greiner Bio-One GmbH, Frickenhausen, Germany) at a density of 5.0 × 10^4 cells/well in 0.5 ml of F-12 medium. Cells were incubated until they attached (approximately 3 h), followed by the addition of [^3H]AA to a final concentration of 0.05 μCi of [^3H]AA per well. The cells were then grown for 16 to 20 h before the assay was performed. [^3H]AA release was measured in Eagle’s basal medium with 20 mM HEPES and 2 mg/ml fatty acid-free bovine serum albumin (EM-BSA). Cells were rinsed twice with EM-BSA, followed by the addition of EM-BSA media containing experimental agents and incubated for 1 h at 37 °C. The assay was terminated by aspiration of the media, and the amount of [^3H]AA released was determined by liquid scintillation counting (Beckman-Coulter LS6500).
Where indicated (Fig. 2), cells were pretreated with POB to reduce the number of available receptors per cell. Stock POB was made up at 10 mM in ethanol and stored at −20C. Each well was pretreated with 0.5 ml of the appropriate concentration in PBS with 1 mM CaCl2 and 1 mM MgCl2 (PBS+ +) for 30 min at 37 °C, followed by 5 washes with PBS+ + . After pretreatment, the normal protocol follows as above.
Tabulated [^3H]AA release data are represented as a fraction of maximal release elicited by ACh or as the fraction of release elicited by the relevant concentration of ACh alone, as indicated. Dose-response curves were normalized to the maximal response of ACh without allosteric ligand. Where indicated, response curves were analyzed using the empirical four-parameter equation: Y=Top+Bottom-Top/1+X/C50^n where X is the concentration of the ligand used, Y is the amount of response, C50 is the concentration of the ligand that produces 50% of the maximal effect, Top and Bottom are the top and bottom plateaus of the curve, and n is related to the Hill slope for the curve. Where indicated, families of response curves were analyzed according to an allosteric operational model[50],[51]: Y=EM[τAA(KB+αβB)+τBBKA]/[τAA(KB+αβB)+τBBKA+AKB+KAKB+KAB+αAB] where EM is the maximal response; A is the concentration of ACh; B is the concentration of the allosteric ligand; τA and τB represent the operational efficacies of A and B, respectively; KA and KB are the equilibrium dissociation constants of A and B; and α and β represent the cooperativities between A and B in terms of binding and activation, respectively. Curve-fitting was carried out with GraphPad Prism, version 5.0 or 6.0 (San Diego CA).

Structure (SMILES)	Angular velocity [1]	Operational efficacy-B, τB ([2]; best-fit ± s.e.m.)	Affinity-B, logKB ([2]; given as logKB (negative log value), allosteric site)	Therap. index [3]	Effect on locomotor activity and turning behaviors, in words ([3]; 30 min spontaneous swimming period)	Concentration with significant effects on locomotor behaviors ([3]; AB zebrafish)	Distance moved [3]	Variance turn angle [3]	MEC [3]	MTC (maximum tolerated concentration) [4]	Concentration up to which no signs of toxicity were produced ([4]; highest concentration tested)	0.1 µM ACh: response with modulator present divided by response to ACh alone [5]	100 µM ACh: response with modulator present divided by response to ACh alone [5]	No ACh: agonist effect of the allosteric ligand by itself, fraction of the maximal response that could be elicited by ACh [5]	Effect on M1 receptor activity and ACh response, in words [5]
COc1c(I)cc(CN2C(=O)C(=O)c3ccccc32)cc1I [Compound 8a, 1-(3,5-diiodo-4-methoxybenzyl)indoline-2,3-dione]	197.1 ± 19.8 %	0.17 ± 0.03	−6.26 ± 0.15	> 100	reduced locomotor activity	1 µM	45.8 ± 6.4*** %	161.1 ± 13.4*** %	0.3 µM	> 30 µM	≥ 30 µM	2.44 ± 0.21	1.62 ± 0.06	0.24 ± 0.04	significant enhancement of ACh activity; also recorded: dramatically enhanced ACh efficacy
CCCCc1oc2ccccc2c1C(=O)c1cc(I)c(OC)c(I)c1 [Compound 6b, (2-butylbenzofuran-3-yl)(3,5-diiodo-4-methoxyphenyl)methanone]	132.3 ± 16.9%	–	–	–	–	–	75.3 ± 8.5* %	133.7 ± 14.0* %	> 30 µM	30 µM	–	1.78 ± 0.12	1.36 ± 0.07	0.08 ± 0.02	increased ACh activity
CCCCc1oc2ccc(NS(C)(=O)=O)cc2c1C(=O)c1ccc(OCCCN(CCCC)CCCC)cc1 [Dronedarone, reference compound]	172.8 ± 25.7 %	–	–	1	–	–	28.3 ± 5.3*** %	141.6 ± 12.5*** %	10 µM	10 µM	–	0.25 ± 0.05	0.75 ± 0.07	0.08 ± 0.01	–
CCN(CC)CCOc1c(Br)cc(CN2C(=O)C(=O)c3ccccc32)cc1Br.Cl [Compound 8l, 1-(3,5-dibromo-4-(2-(diethylamino)ethoxy)benzyl)indoline-2,3-dione hydrochloride]	184.7 ± 17.0 %	–	–	1	–	–	33.5 ± 4.4** %	166.1 ± 12.5*** %	10 µM	10 µM	–	0.10 ± 0.07	0.86 ± 0.04	0.05 ± 0.01	only decreased ACh activity; also recorded: decreased ACh potency with little impact on ACh efficacy
COc1c(Cl)cc(CN2C(=O)C(=O)c3ccccc32)cc1Cl [Compound 8e, 1-(3,5-dichloro-4-methoxybenzyl)indoline-2,3-dione]	222.1 ± 25.0 %	–	–	100	–	–	29.1 ± 5.3*** %	158.8 ± 14.3*** %	1 µM	100 µM	–	2.29 ± 0.14	1.21 ± 0.07	0.13 ± 0.04	–
CCCCc1oc2ccccc2c1C(=O)c1cc(I)c(OCCN(CC)C(C)=O)c(I)c1 [Compound 5, N-(2-(4-(2-butylbenzofuran-3-carbonyl)-2,6-diiodophenoxy)ethyl)-N-ethylacetamide]	104.0 ± 10.7%	–	–	–	–	–	108.0 ± 12.9%	102.5 ± 8.1%	> 10 µM	10 µM	–	1.86 ± 0.42	1.47 ± 0.09	0.22 ± 0.03	significant intrinsic agonist activity
O=C1C(=O)N(Cc2ccc(O)cc2)c2ccccc21 [Compound 10, 1-(4-hydroxybenzyl)indoline-2,3-dione]	131.2 ± 13.4 %	–	–	3.3	–	–	72.4 ± 8.6* %	135.3 ± 13.5* %	3 µM	10 µM	–	1.42 ± 0.24	0.92 ± 0.06	0.01 ± 0.01	–
